How the values were obtained:
[1] = in vitro studies (Wang et al., British Journal of Pharmacology (2004) 142, 443-452); cited from earlier work
[2] = system: primary neonatal rat cardiac myocytes; test: Cytoprotection in primary cardiac myocytes; type: cell-based
Protocol: (§1) Cardiac myocytes were plated on collagen-coated dishes in serum containing media Dulbecco's modified Eagle's medium/Medium 199 (4:1 v/v) containing 10% (v/v) horse serum, 5% (v/v) fetal calf serum, and penicillin/streptomycin (100 units/ml). Murine skeletal myoblast (C2C12) or rat cardiac myoblasts (H9C2) were maintained in DMEM supplemented with 10% (v/v) fetal calf serum and 100 U/ml penicillin-streptomycin. Cells were incubated overnight at 37° C. in a 5% CO2 incubator prior to the experiment. Cells were pre-treated with flavanols for 30 min prior to stress treatments. Following pre-treatment, cells were stimulated by the addition of H2O2 (1 mM), sorbitol (0.5 M) or arsenite (300 μM). DMSO (0.1% v/v) was used as a vehicle control. Following treatment, cells were assessed for viability or protein lysates prepared for immunoblot analysis.
(§2) To define the protective and kinase modulatory properties of the compounds of the certain embodiments, their effects in greater detail in vitro. The protection of cultured C2C12 murine myoblasts was evaluated against detrimental stress stimuli using an XTT assay of cell viability. In a time-course of oxidative damage, it was observed that 2 h treatment of H2O2 (0.5 or 1.0 mM) reduced myoblast viability to 38.5+2.0% and 31.9+0.8%, respectively, compared with control cells without H2O2 treatment.

H9C2 rat myoblasts = test: Cytoprotection in H9C2 myoblasts; type: cell-based
Protocol: as §1, §2

In the case of `O=c1c(O)c(-c2ccc(O)c(O)c2)oc2ccccc12` [DiOHF, 3′,4′-dihydroxy flavonol], the “infarct and injury associated with myocardial ischaemia and reperfusion” value [1] is listed as “reduce infarct and injury”, the protection against stress [2] is listed as “similarly protective” and the protection against stress (H9C2 rat myoblasts) is listed as “similarly protective”.

— patent US20140275156A1, “FLAVONOID COMPOUNDS, AND METHODS OF USE THEREOF” (NEUPROTECT PTY LTD, priority 2011, published 2014)
